Test results from patent publication US9216216B2, “LprG as a chaperone of immune adjuvants” (Case Western Reserve University, priority 2009, dated 2015).
Entries after “also recorded” stand apart in the source; their conditions may differ.

B1: LprG: Mtb lipoprotein LprG (SEQ ID NO: 2), recombinant 6×His-tagged acylated form (protein, listed as Mycobacterium smegmatis)
chain: MLGMQTRRRLSAVFASLTLATALIAGCSSGSKQSGAPLPDPTSLVKQSADATKNVKSVHLVLSIQGKISGLPIKTLTGDLTTTPATAAKGNATITLGGSDIDANFVVVDGTLYATLTPNKWSDFGKASDIYDVSVLLNPDNGLGNALANFSNAKAEGRETINGQSTIRISGNVSADAVNKIMPQFNATQPVPSTVWVQETGDHQLVQANLQKSSGNSVQVTLSNWGEQVQVTKPPVSS
modifications: 6xHis tag; acylated
B2: Acylated LprG-V91W: acylated LprG with the V91W mutation of the putative glycolipid binding site (protein, UniProt P9WK45 27-236, looked up, variant V91W)
Lipoarabinomannan carrier …: CSSGSKPSGGPLPDAKPLVEEATAQTKALKSAHMVLTVNGKIPGLSLKTLSGDLTTNPTAATGNWKLTLGGSDIDADFVVFDGILYATLTPNQWSDFGPAADIYDPAQVLNPDTGLANVLANFADAKAEGRDTINGQNTIRISGKVSAQAVNQIAPPFNATQPVPATVWIQETGDHQLAQAQLDRGSGNSVQMTLSKWGEKVQVTKPPVS

Experiments:
[1] = tested on: bone marrow-derived macrophages; format: cell-based, mice
[2] = biological target: T1, TLR2 (Homo sapiens, UniProt O60603+Q15399); format: cell-based
T1 construct: YFP; expressed in transfected cells

[3] = biological target: T1, TLR2; format: cell-based; remark: listed apart in the source

T1 sequence (O60603 21-784, species assumed): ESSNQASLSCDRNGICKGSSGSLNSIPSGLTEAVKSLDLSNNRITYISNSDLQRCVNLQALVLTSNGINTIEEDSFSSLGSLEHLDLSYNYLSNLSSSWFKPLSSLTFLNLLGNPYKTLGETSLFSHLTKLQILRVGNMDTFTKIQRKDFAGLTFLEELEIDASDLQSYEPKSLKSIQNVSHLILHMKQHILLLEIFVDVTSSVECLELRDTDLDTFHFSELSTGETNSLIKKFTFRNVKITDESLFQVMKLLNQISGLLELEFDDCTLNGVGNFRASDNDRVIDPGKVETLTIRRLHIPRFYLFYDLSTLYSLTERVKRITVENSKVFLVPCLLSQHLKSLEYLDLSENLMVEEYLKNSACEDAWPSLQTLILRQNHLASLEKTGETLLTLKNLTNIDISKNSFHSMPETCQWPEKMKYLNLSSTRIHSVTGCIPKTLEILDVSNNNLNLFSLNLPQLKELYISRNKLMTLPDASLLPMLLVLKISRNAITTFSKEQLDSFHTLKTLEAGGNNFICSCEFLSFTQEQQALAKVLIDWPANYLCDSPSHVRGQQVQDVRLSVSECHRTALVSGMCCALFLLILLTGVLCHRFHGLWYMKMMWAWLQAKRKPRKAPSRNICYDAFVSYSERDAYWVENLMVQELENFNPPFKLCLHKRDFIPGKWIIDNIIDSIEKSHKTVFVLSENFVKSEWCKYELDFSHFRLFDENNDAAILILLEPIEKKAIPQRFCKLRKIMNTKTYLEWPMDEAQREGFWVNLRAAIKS
T1 sequence (Q15399 25-786, species assumed): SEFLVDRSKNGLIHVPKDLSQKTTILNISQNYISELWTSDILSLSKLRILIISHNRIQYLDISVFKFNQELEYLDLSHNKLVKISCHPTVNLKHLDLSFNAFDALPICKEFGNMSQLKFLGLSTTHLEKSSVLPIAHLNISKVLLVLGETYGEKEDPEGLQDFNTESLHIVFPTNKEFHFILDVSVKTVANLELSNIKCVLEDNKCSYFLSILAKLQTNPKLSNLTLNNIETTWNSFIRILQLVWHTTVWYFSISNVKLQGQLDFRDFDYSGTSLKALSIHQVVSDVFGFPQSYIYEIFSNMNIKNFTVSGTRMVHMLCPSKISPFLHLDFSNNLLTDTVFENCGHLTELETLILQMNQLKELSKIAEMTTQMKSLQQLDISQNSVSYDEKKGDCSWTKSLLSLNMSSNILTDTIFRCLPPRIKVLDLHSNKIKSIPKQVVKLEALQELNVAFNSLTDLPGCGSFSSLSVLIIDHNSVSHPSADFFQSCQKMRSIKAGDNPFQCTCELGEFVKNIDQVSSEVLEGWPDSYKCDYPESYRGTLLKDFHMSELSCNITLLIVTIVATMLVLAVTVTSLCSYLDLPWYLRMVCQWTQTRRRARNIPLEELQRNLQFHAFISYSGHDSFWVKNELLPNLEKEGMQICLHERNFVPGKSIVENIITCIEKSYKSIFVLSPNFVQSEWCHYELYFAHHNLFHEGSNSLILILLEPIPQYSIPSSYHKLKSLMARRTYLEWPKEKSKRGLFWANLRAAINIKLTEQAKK

Molecule	TLR dependence of macrophage TNFα response [1]	also measured
CpG ODN 1826	intact in knockout cell lines; also recorded: All macrophage types responded	–
FSL-1	dependent on TLR2 and TLR6, but not TLR1	–
B1	–	TLR2 agonist activity (IL-8 response) [2]: dose-dependent IL-8 response; also recorded: more potent TLR2 agonist than a homologous Mtb lipoprotein, LprA
B2	–	TLR2 agonist activity of acylated protein [3]: significantly less potent than wild-type acylated LprG
